# Data published in patent publication US12358960B2, “Selective targeting of ubiquitin- and ubiquitin-like E1-activating enzymes by structurally-stabilized peptides” (Dana-Farber Cancer Institute, Inc., priority 2019, dated 2025).
# Entries after “also recorded” stand apart in the source; their conditions may differ. Bridge positions count the residues as written; N and C are the ends. Square brackets hold non-standard residues; d marks the D form. Ends that are not written are not given here. * marks the point of attachment. R8 = C=CCCCCCC[C@@](C)(N)C(=O)O; S5 = C=CCCC[C@](C)(N)C(=O)O; Nle = CCCC[C@H](N)C(=O)O; Dab = NCC[C@H](N)C(=O)O; Acryloyl = C=CC(=O)*
# Target: T1, Human E1 activating enzyme UBA1 (Homo sapiens, UniProt P22314)
# T1 sequence (P22314 1-1058): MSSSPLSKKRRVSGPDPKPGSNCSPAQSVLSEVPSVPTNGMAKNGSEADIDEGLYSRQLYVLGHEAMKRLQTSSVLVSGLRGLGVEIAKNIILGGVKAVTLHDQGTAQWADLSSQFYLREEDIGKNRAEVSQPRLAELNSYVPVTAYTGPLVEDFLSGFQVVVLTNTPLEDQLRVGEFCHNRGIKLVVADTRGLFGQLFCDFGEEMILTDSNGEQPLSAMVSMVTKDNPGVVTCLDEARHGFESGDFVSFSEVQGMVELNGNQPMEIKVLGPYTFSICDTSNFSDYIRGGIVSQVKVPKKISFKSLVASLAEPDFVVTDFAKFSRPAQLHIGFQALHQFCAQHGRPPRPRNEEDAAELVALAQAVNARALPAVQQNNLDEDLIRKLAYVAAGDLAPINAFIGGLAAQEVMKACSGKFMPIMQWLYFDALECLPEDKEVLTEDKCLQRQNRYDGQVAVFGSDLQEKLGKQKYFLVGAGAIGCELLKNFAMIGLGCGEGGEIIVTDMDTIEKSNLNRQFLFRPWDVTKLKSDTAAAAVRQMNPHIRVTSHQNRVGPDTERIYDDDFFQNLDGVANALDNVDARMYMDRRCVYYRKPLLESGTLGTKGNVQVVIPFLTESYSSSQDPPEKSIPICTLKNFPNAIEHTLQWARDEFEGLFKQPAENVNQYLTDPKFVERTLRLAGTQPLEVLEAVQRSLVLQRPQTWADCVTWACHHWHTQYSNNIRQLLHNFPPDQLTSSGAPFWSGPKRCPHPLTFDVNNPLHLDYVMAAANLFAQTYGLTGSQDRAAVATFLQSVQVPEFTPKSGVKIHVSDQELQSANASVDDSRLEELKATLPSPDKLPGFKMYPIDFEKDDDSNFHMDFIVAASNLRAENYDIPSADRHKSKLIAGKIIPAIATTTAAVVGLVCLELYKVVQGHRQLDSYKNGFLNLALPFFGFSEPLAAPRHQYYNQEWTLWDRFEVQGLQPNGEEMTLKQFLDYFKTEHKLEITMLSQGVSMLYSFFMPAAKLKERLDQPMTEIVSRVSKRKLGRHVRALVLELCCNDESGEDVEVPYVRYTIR
# Experiment: In vitro enzyme inhibition assay: E1-mediated ubiquitin thioester transfer to E2 (band shift, silver stain)
# Format: biochemical
# Details: 100 μM peptide, UbcH5b E2 enzyme, 45 minutes, staple scan
# Protocol: In vitro Enzyme Inhibition Assays: To assess an E2 hA peptide's inhibition of an E1 enzyme, an in vitro enzyme inhibition assay can be used, for example. The in vitro enzyme inhibition assay measures an E2 hA peptide's ability to inhibit conjugation of ubiquitin to E2 by E1. Briefly, recombinant E1 (e.g., UBA1), recombinant E2 (e.g., UBE2A), ubiquitin, and Mg-ATP are combined in the presence of an E2 hA peptide or vehicle control (e.g., 1% DMSO) for a period of time (e.g., 30 minutes) at room temperature in a buffer containing, e.g., 50 mM NaCl, 50 mM HEPES pH 7.5. Control reaction includes no E1. Reactions are quenched by addition of SDS-containing loading dye and samples are resolved on a gel (e.g., a 4-12% Bis-Tris protein gel) under nonreducing conditions. Proteins on the gel are visualized via, e.g., silver stain. Conjugation of ubiquitin to E2 by E1 is monitored by conversion of free E2 (˜17 kDa) to E2˜ubiquitin conjugate (˜26 kDa).
# Control reaction included no E1 enzyme. Reactions were quenched by addition of SDS-containing loading dye and samples were resolved on a 4-12% Bis-Tris protein gel under nonreducing conditions. Proteins were visualized via silver stain. Conjugation of ubiquitin to E2 by E1 was monitored by conversion of free E2 (17 kDa) to E2˜ubiquitin conjugate (26 kDa).
# The ability of the peptides to inhibit E1-mediated thioester transfer to E2 was evaluated. Human E1 activating enzyme UBA1 (10 nM), UbcH5b E2 enzyme (150 nM), ubiquitin (1 μM), and Mg-ATP (20 μM) were combined in the presence of stapled peptide at a range of concentrations or vehicle control (1% DMSO) for 45 minutes at room temperature in buffer containing 50 mM NaCl, 50 mM HEPES, 1 mM TCEP pH 7.5. Reactions were quenched by addition of SDS-containing loading dye and samples were resolved on a 4-12% Bis-Tris protein gel under nonreducing conditions. Proteins were visualized via silver stain. Conjugation of ubiquitin to E2 by E1 was monitored by conversion of free E2 (17 kDa) to E2˜ubiquitin conjugate (26 kDa). Inhibition percentage was calculated from densitometry of silver stain images.
# Streptavidin-biotin pull-down assays: For recombinant protein pull-downs, 10 pmol recombinant human UBA1 was incubated with 5 nmol C-terminally biotinylated SAH-UBE2A or DMSO vehicle control in a total volume of 1 mL binding buffer (50 mM NaCl, 20 mM HEPES, pH 7.4, 5 mM DTT) for 1.5 hours at 4° C. 30 μL of pre-equilibrated streptavidin agarose beads were then added and incubated for an additional 1.5 hours at 4° C. The beads were pelleted by centrifugation and washed three times with NP-40 buffer (20 mM HEPES, pH 7.4, 50 mM NaCl, 5 mM DTT, 0.5% [v/v] NP-40) before eluting the protein sample from the beads by heating at 70° C. for 10 min in 3×SDS loading buffer. Samples were subjected to electrophoresis and silver staining (Pierce 24612). For pull-down from cellular lysates, 0.75 mg HeLa cell lysate was incubated with 5 nmol C-terminally biotinylated SAH-UBE2A or DMSO vehicle control in a total volume of 1 mL binding buffer (50 mM NaCl, 20 mM HEPES, pH 7.4, 5 mM DTT) containing protease-phosphatase inhibitor cocktail for 2 hours at 4° C. 30 μL of pre-equilibrated streptavidin agarose beads (ThermoFisher 20357) were then added and incubated for an additional 1.5 hours at 4° C. The beads were pelleted by centrifugation and washed three times with NP-40 buffer (20 mM HEPES, pH 7.4, 50 mM NaCl, 5 mM DTT, 0.5% [v/v] NP-40) before eluting the protein sample from the beads by heating at 70° C. for 10 min in 3×SDS loading buffer. Proteins were separated by SDS-PAGE gel electrophoresis and detected by western blot against UBE1 (Abcam ab34711). In vitro Enzyme Inhibition Assays: Recombinant human E1 activating enzyme UBA1 (10 nM), E2 enzyme (150 nM), ubiquitin (1 μM), and Mg-ATP (20 μM) are combined in the presence of peptide or vehicle control (1% DMSO) for 45 minutes at room temperature in buffer containing 50 mM NaCl, 50 mM HEPES pH 7.5. Control reaction includes no E1 enzyme. […]
row,Substance,inhibition of E1-mediated ubiquitin transfer to E2 (conversion of E2 to E2~ubiquitin)
1,BPSSX1SRQLLRX2QLKEIQ [SEQ ID NO:49],inhibited conversion of E2 to E2˜ubiquitin by E1
2,BPSSASRQLLRKX2LKEX2Q [SEQ ID NO:47],inhibited conversion of E2 to E2˜ubiquitin by E1
3,BPSSASRQLX1RKQLKEX2Q [SEQ ID NO:54],unable to inhibit E1-mediated ubiquitin transfer to E2
4,BPSSASRX2LLRX2QLKEIQ [SEQ ID NO:43],unable to inhibit E1-mediated ubiquitin transfer to E2
5,BPSSASX1QLLRKQX2KEIQ [SEQ ID NO:51],unable to inhibit E1-mediated ubiquitin transfer to E2
6,BPSSASRQX1LRKQLKX2IQ [SEQ ID NO:53],inhibited conversion of E2 to E2˜ubiquitin by E1
7,BPSSASRQLLRX2QLKX2IQ [SEQ ID NO:46],inhibited conversion of E2 to E2˜ubiquitin by E1
8,BPSSASRQX2LRKX2LKEIQ [SEQ ID NO:44],inhibited conversion of E2 to E2˜ubiquitin by E1
9,BPSSAX2RQLX2RKQLKEIQ [SEQ ID NO:42],unable to inhibit E1-mediated ubiquitin transfer to E2

# Same assay, conditions: Example 8
row,Substance,inhibition of E1-mediated thioester transfer to E2 by warhead-bearing stapled peptides
1,"BX1LKRIHJX2LNDLARD ([Nle][R8]LKRIH[Dab](Acryloyl)[S5]LNDLARD; staple 2-9; not fully specified (N-terminus, C-terminus); printed as BX1LKRIHJX2LNDLARD) [SEQ ID NO:691, warhead-bearing stapled peptide, J acrylamide-bearing Dab at A8, staple A2 and A9]",did not inhibit E1-mediated thioester transfer to E2
2,"BPSSAX1RQLLRKX2LJEIQ ([Nle]PSSA[R8]RQLLRK[S5]L[Dab](Acryloyl)EIQ; staple 6-13; not fully specified (N-terminus, C-terminus); printed as BPSSAX1RQLLRKX2LJEIQ) [SEQ ID NO:844, warhead-bearing stapled peptide, J acrylamide-bearing Dab at A11, staple A2 and A9]",inhibited E1-mediated thioester transfer to E2
3,"X1ALKRIHX2ELJDLARD ([R8]ALKRIH[S5]EL[Dab](Acryloyl)DLARD; staple 1-8; not fully specified (N-terminus, C-terminus); printed as X1ALKRIHX2ELJDLARD) [SEQ ID NO:763, warhead-bearing stapled peptide, J acrylamide-bearing Dab at A11, staple A1 and A8]",did not inhibit E1-mediated thioester transfer to E2
4,"BPSSAX1RQLLRJX2LKEIQ ([Nle]PSSA[R8]RQLLR[Dab](Acryloyl)[S5]LKEIQ; staple 6-13; not fully specified (N-terminus, C-terminus); printed as BPSSAX1RQLLRJX2LKEIQ) [SEQ ID NO:842, warhead-bearing stapled peptide, J acrylamide-bearing Dab at A8, staple A2 and A9]",inhibited E1-mediated thioester transfer to E2
5,"BSTPX1RRRLJRX2FKRLQ ([Nle]STP[R8]RRRL[Dab](Acryloyl)R[S5]FKRLQ; staple 5-12; not fully specified (N-terminus, C-terminus); printed as BSTPX1RRRLJRX2FKRLQ) [SEQ ID NO:680, warhead-bearing stapled peptide, J acrylamide-bearing Dab at A7, staple A2 and A9]",inhibited E1-mediated thioester transfer to E2
6,"BX1LKRIHKX2LJDLARD ([Nle][R8]LKRIHK[S5]L[Dab](Acryloyl)DLARD; staple 2-9; not fully specified (N-terminus, C-terminus); printed as BX1LKRIHKX2LJDLARD) [SEQ ID NO:727, warhead-bearing stapled peptide, J acrylamide-bearing Dab at A11, staple A2 and A9]",inhibited E1-mediated thioester transfer to E2

# Same assay, conditions: SAH-UBE2A-11 variants and controls, Examples 4, 7, 13
row,Substance,inhibition of E1-mediated thioester transfer to E2 by mutant / additional stapled peptides
1,BSTPX1RRRABRX2FKRLQ ([Nle]STP[R8]RRRA[Nle]R[S5]FKRLQ-NH2; staple 5-12; not fully specified (N-terminus); printed as BSTPX1RRRABRX2FKRLQ) [SEQ ID NO:819],impair the inhibitory activity of SAH-UBE2A-11
2,BSTPX1RARAARX2FKRLQ (Ac-[Nle]STP[R8]RARAAR[S5]FKRLQ-NH2; staple 5-12) [SAH-UBE2A-AAA],no inhibitory activity; also recorded: progressively impaired inhibitory activity as compared to the single point mutation peptide SAH-UBE2A-R7E; also recorded: negligible inhibitory activity
3,BSTPX1RRRLARX2FKRLQ (Ac-[Nle]STP[R8]RRRLAR[S5]FKRLQ-NH2; staple 5-12) [SEQ ID NO:820],impair the inhibitory activity of SAH-UBE2A-11

# Same assay, conditions: range of peptide concentrations, UbcH5b E2 enzyme, 45 minutes
row,Substance,"inhibition of E1-mediated thioester transfer to E2, dose response"
1,BX1LKRIHKX2LNDLARD [SAH-UBE2D2-11],inhibited E1-mediated thioester transfer to E2 in a dose-dependent manner; also recorded: dose-dependently inhibit E1-mediated thioester transfer to E2
2,BAGTX1LKRLBAX2YK [SAH-UBE2G2-11],inhibited E1-mediated thioester transfer to E2 in a dose-dependent manner; also recorded: dose-dependently inhibit E1-mediated thioester transfer to E2
